Data taken from PMC11283614 (Veterinary World, 2024).
≈ marks a conversion by molar mass, not a printed value. Where two headings read alike, the source gives them in different places. Marks after values point to notes of the source that are not given here.

Assays:
in vitro = details: African green monkey
[1] = Syrian, in vivo; for Number of dead hamsters after 2 days / Number of dead hamsters after 7 days: hamster
SARS-CoV-2 [2] = assay: Blood cell populations (blood smears) of infected hamsters; assay type: in vivo, Syrian hamsters; details: 7 dpi, therapeutic action
[3] = test system: SARS-CoV-2 (delta strain); set-up: species or system Syrian hamsters; details: hamster, in vivo
SARS-CoV-2 [4] = assay: Suppression of SARS-CoV-2 replication in Vero cells, CPE-based titration of supernatant; assay type: cell-based; details: for Time during which viral activity was inhibited: 100 TCD50/mL SARS-CoV-2, compounds added after 1 h virus incubation; for Suppression of viral activity: up to a dilution of 100 TCD50/ml
SARS-CoV-2 [5] = assay: Myelogram / bone marrow cell populations of infected hamsters; assay type: in vivo, Syrian hamsters
[6] = test system: SARS-CoV-2 (delta strain); set-up: species or system Syrian hamsters; details: hamster, in vivo; remark: listed apart in the source
VERO cells = details: incubation 24 h

CSc1nnc2cc(C)nc(SC)n12 [5a]
CC50 (in vitro): 240 µg/mL (≈ 1060 µM)

COC(=O)CSc1nnc2cc(C)nc(SC)n12 [5c]
CC50 (in vitro): 40 µg/mL (≈ 141 µM)

CSc1nc(C)cc2nnc(SCCOc3ccccc3)n12 [5d]
Number of dead hamsters after 2 days ([1]; 0.2 mg/kg): 0
Number of dead hamsters after 7 days ([1]; 0.2 mg/kg): 0
Number of dead hamsters after 2 days ([1]; 1 mg/kg): 0
Number of dead hamsters after 7 days ([1]; 1 mg/kg): 0
Blood cells: Band (SARS-CoV-2 [2]): 19 ± 4.8%
Blood cells: Basophil (SARS-CoV-2 [2]): 0.01%
Blood cells: Destroyed (SARS-CoV-2 [2]): 1.0%
Blood cells: Eosinophil (SARS-CoV-2 [2]): 0.1 ± 0.05%
Blood cells: Lymphoblast (SARS-CoV-2 [2]): 0.9 ± 0.2%
Blood cells: Lymphocyte (SARS-CoV-2 [2]): 65 ± 9.3%
Blood cells: Metamyelocyte (SARS-CoV-2 [2]): 2 ± 0.5%
Blood cells: Monocyte (SARS-CoV-2 [2]): 2.1 ± 0.3%
Blood cells: Myeloid (SARS-CoV-2 [2]): 1.1 ± 0.1%
Blood cells: Segment (SARS-CoV-2 [2]): 8.8%
Development of lung injury (micro-CT) [3]: inhibited
CC50 (in vitro): 320 µg/mL (≈ 963 µM)
Time during which viral activity was inhibited (SARS-CoV-2 [4]): 24 to 72 h
Suppression of viral activity (SARS-CoV-2 [4]): almost completely suppressed
Effect on bone marrow changes seen in the positive control group (SARS-CoV-2 [5]; 9th day): does not obstruct the similar bone marrow changes
Recovery of bone marrow cell populations compared to the positive control (SARS-CoV-2 [5]; 18th day): more rapid recovery of all cell populations
Myelogram: Band (SARS-CoV-2 [5]; infected hamsters, 9 dpi): 26.1 ± 4.4%
Myelogram: Basophil (SARS-CoV-2 [5]; infected hamsters, 9 dpi): 0.1 ± 0.04%
Myelogram: Basophil erythroblast (SARS-CoV-2 [5]; infected hamsters, 9 dpi): 4.6 ± 0.9%
Myelogram: Destroyed (SARS-CoV-2 [5]; infected hamsters, 9 dpi): 3.2 ± 0.3%
Myelogram: Eosinophil (SARS-CoV-2 [5]; infected hamsters, 9 dpi): 3.2 ± 0.4%
Myelogram: Limph.patol. (SARS-CoV-2 [5]; infected hamsters, 9 dpi): 1.1 ± 0.4%
Myelogram: Lymphoblast (SARS-CoV-2 [5]; infected hamsters, 9 dpi): 3.5 ± 0.6%
Myelogram: Lymphocyte (SARS-CoV-2 [5]; infected hamsters, 9 dpi): 8.9 ± 1.2%
Myelogram: Macroph. Island (SARS-CoV-2 [5]; infected hamsters, 9 dpi): 1.6 ± 0.03%
Myelogram: Macroph. Resident (SARS-CoV-2 [5]; infected hamsters, 9 dpi): 1.6 ± 0.05%
Myelogram: Megakaryoblast (SARS-CoV-2 [5]; infected hamsters, 9 dpi): 1.6 ± 0.02%
Myelogram: Megakaryocyte azurophil (SARS-CoV-2 [5]; infected hamsters, 9 dpi): 1.6 ± 0.1%
Myelogram: Megakaryocyte basophil (SARS-CoV-2 [5]; infected hamsters, 9 dpi): 1.6 ± 0.1%
Myelogram: Metamyelocyte (SARS-CoV-2 [5]; infected hamsters, 9 dpi): 5.2 ± 1.0%
Myelogram: Mitos (SARS-CoV-2 [5]; infected hamsters, 9 dpi): 1.6 ± 0.02%
Myelogram: Monoblast (SARS-CoV-2 [5]; infected hamsters, 9 dpi): 2.9 ± 0.7%
Myelogram: Monocyte (SARS-CoV-2 [5]; infected hamsters, 9 dpi): 3.8 ± 0.8%
Myelogram: Myeloid (SARS-CoV-2 [5]; infected hamsters, 9 dpi): 3.9 ± 0.5%
Myelogram: Ortochrom erythroblast (SARS-CoV-2 [5]; infected hamsters, 9 dpi): 8.8 ± 0.9%
Myelogram: Pathol neutrophil (SARS-CoV-2 [5]; infected hamsters, 9 dpi): 2.1 ± 0.5%
Myelogram: Polychromatophil erythroblast (SARS-CoV-2 [5]; infected hamsters, 9 dpi): 5.9 ± 2.1%
Myelogram: Proerythroblast (SARS-CoV-2 [5]; infected hamsters, 9 dpi): 3.1 ± 0.5%
Myelogram: Segment (SARS-CoV-2 [5]; infected hamsters, 9 dpi): 3.7 ± 0.5%
Myelogram: Band (SARS-CoV-2 [5]; infected hamsters, 18 dpi): 15.6 ± 3.1 %
Myelogram: Basophil (SARS-CoV-2 [5]; infected hamsters, 18 dpi): 0.01 ± 0.01%
Myelogram: Destroyed (SARS-CoV-2 [5]; infected hamsters, 18 dpi): 0.1 ± 0.01%
Myelogram: Eosinophil (SARS-CoV-2 [5]; infected hamsters, 18 dpi): 0.2 ± 0.01%
Myelogram: Limph.patol. (SARS-CoV-2 [5]; infected hamsters, 18 dpi): 0.1 ± 0.04 %
Myelogram: Lymphoblast (SARS-CoV-2 [5]; infected hamsters, 18 dpi): 2.3 ± 0.5%
Myelogram: Lymphocyte (SARS-CoV-2 [5]; infected hamsters, 18 dpi): 5.2 ± 0.8%
Myelogram: Macroph. Island (SARS-CoV-2 [5]; infected hamsters, 18 dpi): 0.1 ± 0.01%
Myelogram: Macroph. Resident (SARS-CoV-2 [5]; infected hamsters, 18 dpi): 0.1 ± 0.01%
Myelogram: Megakaryoblast (SARS-CoV-2 [5]; infected hamsters, 18 dpi): 0.03 ± 0.02%
Myelogram: Megakaryocyte azurophil (SARS-CoV-2 [5]; infected hamsters, 18 dpi): 0.01 ± 0.01%
Myelogram: Megakaryocyte basophil (SARS-CoV-2 [5]; infected hamsters, 18 dpi): 0.01 ± 0.01%
Myelogram: Metamyelocyte (SARS-CoV-2 [5]; infected hamsters, 18 dpi): 20.1 ± 4.3%
Myelogram: Mitos (SARS-CoV-2 [5]; infected hamsters, 18 dpi): 0.01 ± 0.01%
Myelogram: Monoblast (SARS-CoV-2 [5]; infected hamsters, 18 dpi): 1.0 ± 0.02%
Myelogram: Monocyte (SARS-CoV-2 [5]; infected hamsters, 18 dpi): 1.5 ± 0.4%
Myelogram: Myeloid (SARS-CoV-2 [5]; infected hamsters, 18 dpi): 14.3 ± 2.7%
Myelogram: Pathol neutrophil (SARS-CoV-2 [5]; infected hamsters, 18 dpi): 0.1 ± 0.01 %
Myelogram: Polychromatophil erythroblast (SARS-CoV-2 [5]; infected hamsters, 18 dpi): 17.9 ± 2.3 %
Myelogram: Segment (SARS-CoV-2 [5]; infected hamsters, 18 dpi): 3.3 ± 0.3 %
BM section histology (H&E) [6]: preserved structure and cellularity
BM smear [6]: restored erythroid population

CSc1nnc2cc(C)nc(SCc3ccccc3)n12 [6a]
CC50 (in vitro): 20 µg/mL (≈ 66.1 µM)

Cc1cc2nnc(SCCOc3ccccc3)n2c(SCc2ccccc2)n1 [6d]
Monolayer preservation of VERO cells (toxicity) (VERO cells): -
CC50 (in vitro): 320 µg/mL (≈ 783 µM)

CSc1nnc2ccc(-n3nc(C)cc3C)nn12 [10a]
CC50 (in vitro): 40 µg/mL (≈ 154 µM)

Cc1cc(C)n(-c2ccc3nnc(SCC(N)=O)n3n2)n1 [10b]
Number of dead hamsters after 2 days ([1]; 0.16 mg/kg): 0
Number of dead hamsters after 7 days ([1]; 0.16 mg/kg): 0
Number of dead hamsters after 2 days ([1]; 0.8 mg/kg): 0
Number of dead hamsters after 7 days ([1]; 0.8 mg/kg): 1 ^*
Autopsy and histological findings in dead hamster ([1]; 0.8 mg/kg): * Autopsy and histological studies revealed massive hemorrhages in the abdominal cavity and leukopenia. In all investigated preparations except 10b, no lethal effect was observed throughout the experiment. No abnormal appearance or behavior was noted in all investigated groups.
Blood cells: Band (SARS-CoV-2 [2]): 27 ± 8.6%
Blood cells: Destroyed (SARS-CoV-2 [2]): 0.9 ± 0.02%
Blood cells: Eosinophil (SARS-CoV-2 [2]): 0.1 ± 0.01%
Blood cells: Lymphoblast (SARS-CoV-2 [2]): 4.0 ± 0.3%
Blood cells: Lymphocyte (SARS-CoV-2 [2]): 42.3 ± 6.7%
Blood cells: Metamyelocyte (SARS-CoV-2 [2]): 1.0 ± 0.1%
Blood cells: Monocyte (SARS-CoV-2 [2]): 3.9 ± 0.9%
Blood cells: Myeloid (SARS-CoV-2 [2]): 1 ± 0.05%
Blood cells: Pathol neutrophil (SARS-CoV-2 [2]): 2.8 ± 0.7%
Blood cells: Segment (SARS-CoV-2 [2]): 20%
Development of lung injury (micro-CT) [3]: inhibited
CC50 (in vitro): 240 µg/mL (≈ 791 µM)
Time during which viral activity was inhibited (SARS-CoV-2 [4]): 24 to 72 h
Suppression of viral activity (SARS-CoV-2 [4]): almost completely suppressed
Liver pathology (leukocyte / neutrophilic diapedesis) [6]: Absence of neutrophils in liver tissues

Cc1cc(C)n(-c2ccc3nnc(SCCOc4ccccc4)n3n2)n1 [10d]
Number of dead hamsters after 2 days ([1]; 0.32 mg/kg): 0
Number of dead hamsters after 7 days ([1]; 0.32 mg/kg): 0
Number of dead hamsters after 2 days ([1]; 1.6 mg/kg): 0
Number of dead hamsters after 7 days ([1]; 1.6 mg/kg): 0
Blood cells: Band (SARS-CoV-2 [2]): 20.7 ± 7.3%
Blood cells: Basophil (SARS-CoV-2 [2]): 0.01 ± 0.005%
Blood cells: Eosinophil (SARS-CoV-2 [2]): 0.5 ± 0.01%
Blood cells: Lymphoblast (SARS-CoV-2 [2]): 0.9 ± 0.1%
Blood cells: Lymphocyte (SARS-CoV-2 [2]): 58 ± 6.2%
Blood cells: Metamyelocyte (SARS-CoV-2 [2]): 3.1 ± 0.4%
Blood cells: Monoblast (SARS-CoV-2 [2]): 1.0 ± 0.1%
Blood cells: Pathol neutrophil (SARS-CoV-2 [2]): 0.9 ± 0.1%
Blood cells: Segment (SARS-CoV-2 [2]): 13%
Development of lung injury (micro-CT) [3]: inhibited
CC50 (in vitro): 480 µg/mL (≈ 1310 µM)
Time during which viral activity was inhibited (SARS-CoV-2 [4]): 24 to 72 h
Suppression of viral activity (SARS-CoV-2 [4]): almost completely suppressed
Spleen smear [6]: proliferation of late erythroblasts

Cc1cc(C)n(-c2ccc3nnc(C)n3n2)n1 [compound 8]
Number of dead hamsters after 2 days ([1]; 0.3 mg/kg): 0
Number of dead hamsters after 7 days ([1]; 0.3 mg/kg): 0
Number of dead hamsters after 2 days ([1]; 1.5 mg/kg): 0
Number of dead hamsters after 7 days ([1]; 1.5 mg/kg): 0
Blood cells: Band (SARS-CoV-2 [2]): 10.0 ± 2.7%
Blood cells: Destroyed (SARS-CoV-2 [2]): 1.9 ± 0.3%
Blood cells: Eosinophil (SARS-CoV-2 [2]): 0.5 ± 0.1%
Blood cells: Lymphoblast (SARS-CoV-2 [2]): 1.1 ± 0.1%
Blood cells: Lymphocyte (SARS-CoV-2 [2]): 77.2 ± 8.1%
Blood cells: Metamyelocyte (SARS-CoV-2 [2]): 2.0 ± 0.6%
Blood cells: Monoblast (SARS-CoV-2 [2]): 2.9 ± 0.5%
Blood cells: Monocyte (SARS-CoV-2 [2]): 1.2 ± 0.1%
Blood cells: Segment (SARS-CoV-2 [2]): 4%
Development of lung injury (micro-CT) [3]: inhibited
CC50 (in vitro): 480 µg/mL (≈ 2100 µM)
Time during which viral activity was inhibited (SARS-CoV-2 [4]): 24 to 72 h
Suppression of viral activity (SARS-CoV-2 [4]): almost completely suppressed
LN section histology (H&E) [6]: preserved structure and cellularity
Lung pathology (diffuse lymphocytic-macrophage infiltrates) [6]: Mild pathological manifestations
